In the supplement of paper PMC11208160:

assay: recombinant UMI read abundance after kanamycin selection (control-corrected) (log10(CPM+1)); higher = more efficient recombination; extreme values may be limits of the assay; sequences stand for … in AGTGCAGAGAAAATCGGCCAGTTTTCTCTGCCTGCAGTCCGCATGCCGTGGGACCCCTTGGGTTCTAACCTGTTGCCTAGATTTATGCAGCGGACTGCCTTTCTCCCAAAGTGATAAACCGG…AGGTTGGTTTCACT; site = the 11-nt donor
Procedure, shortened: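 Sequenced counts of recombinant UMIs were turned into CPM, averaged across replicates and scaled with control-derived factors. The reported figure is log10(CPM+1). Those UMIs, each 12 nt long, tagged donor and donor-binding-loop pairs on a plasmid with a promoterless kanamycin gene, screened as a pool in Escherichia coli with IPTG (0.07 mM) plus kanamycin or without selection.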
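Also: IS621 bridge recombinase in Escherichia coli cells against a fixed T5 target plasmid.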

Going from “GTAGCTGCATGGACCGGTTTTCCCGGTAATCCGTATTTGTG (site GTAGCTGCTCA)” to “GTAGCTGCATGGACCGGTTTTCCCGGTAATCCGTATTTGTG (site TTAGCTGCTCA)”, the “recombinant UMI read abundance (log10)” value falls from 1.06 to 0.0482.

Compared with “GTAGGATCATGGACCGGTTTTCCCGGTAATCCGTATTTGAC (site CTAGTATCTGT)”, “GTAGGATCATGGACCGGTTTTCCCGGTAATCCGTATTTGAC (site GTAGGATCTGT)” is higher in “recombinant UMI read abundance (log10)” value: 0.851 for the first, 3.19 for the second.

First: GTAGGCGCATGGACCGGTTTTCCCGGTAATCCGTATTTGAC (site GTAGGCGCTGT)
Second: GTAGGCGCATGGACCGGTTTTCCCGGTAATCCGTATTTGCG (site GTAGACGCTCG)
The “recombinant UMI read abundance (log10)” value of the first is lower: 1.9 for the first, 2.78 for the second.

Going from “GTAGGCGCATGGACCGGTTTTCCCGGTAATCCGTATTTGCG (site GTAGCCGCTCG)” to “GTAGGCGCATGGACCGGTTTTCCCGGTAATCCGTATTTGCG (site GTAGGCGCTCG)”, the “recombinant UMI read abundance (log10)” value rises from 0 to 1.47.

First: GTAGGCGCATGGACCGGTTTTCCCGGTAATCCGTATTTGCG (site GTAGTCGCTCG)
Second: GTAGGGTCATGGACCGGTTTTCCCGGTAATCCGTATTTGTT (site GTAGGGTCTAA)
The “recombinant UMI read abundance (log10)” value of the first is lower: 0.407 for the first, 2.38 for the second.

Going from “GTAGGTACATGGACCGGTTTTCCCGGTAATCCGTATTTGGC (site GTAGGTACTGA)” to “GTAGGTACATGGACCGGTTTTCCCGGTAATCCGTATTTGGC (site GTAGGTACTGC)”, the “recombinant UMI read abundance (log10)” value rises from 1.79 to 2.38.

First: GTAGGTACATGGACCGGTTTTCCCGGTAATCCGTATTTGGC (site GTAGGTACTGG)
Second: GTAGGTACATGGACCGGTTTTCCCGGTAATCCGTATTTGGC (site GTAGGTACTGT)
The “recombinant UMI read abundance (log10)” value of the first is lower: 0.159 for the first, 1.53 for the second.

Compared with “GTAGGTACATGGACCGGTTTTCCCGGTAATCCGTATTTGTC (site GTAGGTACTGA)”, “GTAGGTACATGGACCGGTTTTCCCGGTAATCCGTATTTGTC (site GTAGGTACTGC)” is lower in “recombinant UMI read abundance (log10)” value: 1.99 for the first, 0 for the second.

Compared with “GTAGGTACATGGACCGGTTTTCCCGGTAATCCGTATTTGTC (site GTAGGTACTGG)”, “GTAGGTACATGGACCGGTTTTCCCGGTAATCCGTATTTGTC (site GTAGGTACTGT)” is lower in “recombinant UMI read abundance (log10)” value: 1.97 for the first, 1.35 for the second.

First: GTAGTAGCATGGACCGGTTTTCCCGGTAATCCGTATTTGCG (site GTAGTAGCTCG)
Second: GTAGTAGCATGGACCGGTTTTCCCGGTAATCCGTATTTGCG (site GTAGTCGCTCG)
The “recombinant UMI read abundance (log10)” value of the first is higher: 2.62 for the first, 0.72 for the second.

Going from “GTAGTAGCATGGACCGGTTTTCCCGGTAATCCGTATTTGCG (site GTAGTGGCTCG)” to “GTAGTAGCATGGACCGGTTTTCCCGGTAATCCGTATTTGCG (site GTAGTTGCTCG)”, the “recombinant UMI read abundance (log10)” value falls from 1.53 to 1.32.

Going from “GTAGTATCATGGACCGGTTTTCCCGGTAATCCGTATTTGAC (site ATAGTATCTGT)” to “GTAGTATCATGGACCGGTTTTCCCGGTAATCCGTATTTGAC (site CTAGTATCTGT)”, the “recombinant UMI read abundance (log10)” value falls from 3.09 to 2.47.

Compared with “GTAGTATCATGGACCGGTTTTCCCGGTAATCCGTATTTGAC (site GTAGTATCTGT)”, “GTAGTATCATGGACCGGTTTTCCCGGTAATCCGTATTTGAC (site TTAGTATCTGT)” is lower in “recombinant UMI read abundance (log10)” value: 3.41 for the first, 2.29 for the second.

Compared with “GTAGTATCATGGACCGGTTTTCCCGGTAATCCGTATTTGCC (site GTAGTATCTGG)”, “GTAGTATCATGGACCGGTTTTCCCGGTAATCCGTATTTGGC (site CTAGTATCTGT)” is lower in “recombinant UMI read abundance (log10)” value: 2.55 for the first, 0.582 for the second.

Compared with “GTAGTATCATGGACCGGTTTTCCCGGTAATCCGTATTTGGC (site GTAGTATCTGC)”, “GTAGTCGCATGGACCGGTTTTCCCGGTAATCCGTATTTGCG (site ATAGTCGCTCG)” is lower in “recombinant UMI read abundance (log10)” value: 3.51 for the first, 0.405 for the second.

“GTAGTCGCATGGACCGGTTTTCCCGGTAATCCGTATTTGCG (site CTAGTCGCTCG)” and “GTAGTCGCATGGACCGGTTTTCCCGGTAATCCGTATTTGCG (site GAAGTCGCTCG)” are within 0.2 log units of each other in “recombinant UMI read abundance (log10)” value: 0.145 for the first, 0.0146 for the second.

“GTAGTCGCATGGACCGGTTTTCCCGGTAATCCGTATTTGCG (site GCAGTCGCTCG)” and “GTAGTCGCATGGACCGGTTTTCCCGGTAATCCGTATTTGCG (site GGAGTCGCTCG)” are within 0.2 log units of each other in “recombinant UMI read abundance (log10)” value: 0.162 for the first, 0.0136 for the second.

Compared with “GTAGTCGCATGGACCGGTTTTCCCGGTAATCCGTATTTGCG (site GTAATCGCTCG)”, “GTAGTCGCATGGACCGGTTTTCCCGGTAATCCGTATTTGCG (site GTACTCGCTCG)” is lower in “recombinant UMI read abundance (log10)” value: 1.31 for the first, 0.0126 for the second.

“GTAGTCGCATGGACCGGTTTTCCCGGTAATCCGTATTTGCG (site GTAGACGCTCG)” and “GTAGTCGCATGGACCGGTTTTCCCGGTAATCCGTATTTGCG (site GTAGCCGCTCG)” are within 0.2 log units of each other in “recombinant UMI read abundance (log10)” value: 0.714 for the first, 0.584 for the second.

Going from “GTAGTCGCATGGACCGGTTTTCCCGGTAATCCGTATTTGCG (site GTAGGCGCTCG)” to “GTAGTCGCATGGACCGGTTTTCCCGGTAATCCGTATTTGCG (site GTAGTAGCTCG)”, the “recombinant UMI read abundance (log10)” value rises from 0.0201 to 0.489.

Going from “GTAGTCGCATGGACCGGTTTTCCCGGTAATCCGTATTTGCG (site GTAGTCACTCG)” to “GTAGTCGCATGGACCGGTTTTCCCGGTAATCCGTATTTGCG (site GTAGTCCCTCG)”, the “recombinant UMI read abundance (log10)” value falls from 1.24 to 0.553.

Compared with “GTAGTCGCATGGACCGGTTTTCCCGGTAATCCGTATTTGCG (site GTAGTCGCTAG)”, “GTAGTCGCATGGACCGGTTTTCCCGGTAATCCGTATTTGCG (site GTAGTCGCTCA)” is lower in “recombinant UMI read abundance (log10)” value: 1.23 for the first, 0.421 for the second.

First: GTAGTCGCATGGACCGGTTTTCCCGGTAATCCGTATTTGCG (site GTAGTCGCTCC)
Second: GTAGTCGCATGGACCGGTTTTCCCGGTAATCCGTATTTGCG (site GTAGTCGCTCG)
The “recombinant UMI read abundance (log10)” value of the first is lower: 0.0196 for the first, 1.61 for the second.

First: GTAGTCGCATGGACCGGTTTTCCCGGTAATCCGTATTTGCG (site GTAGTCGCTCT)
Second: GTAGTCGCATGGACCGGTTTTCCCGGTAATCCGTATTTGCG (site GTAGTCGCTGG)
The “recombinant UMI read abundance (log10)” value of the first is lower: 0.471 for the first, 1.34 for the second.

“GTAGTCGCATGGACCGGTTTTCCCGGTAATCCGTATTTGCG (site GTAGTCGCTTG)” and “GTAGTCGCATGGACCGGTTTTCCCGGTAATCCGTATTTGCG (site GTAGTCTCTCG)” are within 0.2 log units of each other in “recombinant UMI read abundance (log10)” value: 1.95 for the first, 2 for the second.

“GTAGTCGCATGGACCGGTTTTCCCGGTAATCCGTATTTGCG (site GTAGTGGCTCG)” and “GTAGTCGCATGGACCGGTTTTCCCGGTAATCCGTATTTGCG (site GTAGTTGCTCG)” are within 0.2 log units of each other in “recombinant UMI read abundance (log10)” value: 0.013 for the first, 0.00541 for the second.

“GTAGTCGCATGGACCGGTTTTCCCGGTAATCCGTATTTGCG (site GTATTCGCTCG)” and “GTAGTCGCATGGACCGGTTTTCCCGGTAATCCGTATTTGCG (site GTCGTCGCTCG)” are within 0.2 log units of each other in “recombinant UMI read abundance (log10)” value: 0.011 for the first, 0.00603 for the second.

Going from “GTAGTCGCATGGACCGGTTTTCCCGGTAATCCGTATTTGCG (site GTGGTCGCTCG)” to “GTAGTCGCATGGACCGGTTTTCCCGGTAATCCGTATTTGCG (site GTTGTCGCTCG)”, the “recombinant UMI read abundance (log10)” value rises from 0.0189 to 0.285.

In the case of “GTAGTCGCATGGACCGGTTTTCCCGGTAATCCGTATTTGCG (site TTAGTCGCTCG)”, the “recombinant UMI read abundance (log10)” value is reported as 1.26.
